“Also recorded” adds a separate entry of the source. Non-standard residues stand in square brackets, D forms with d. Residues, ends and D or L forms follow the SMILES beside them. Nle = CCCC[C@H](N)C(=O)O
Experiments:
Type in all cases: cell-based
[1] = system: IkBa/Ubiquitin complexes; assay: IkBa/ubiquitin YFP PCA in HEK293T cells; conditions: TNF induced HEK293T cells, ALLN versus vehicle
Method: IkBa-YFP[1] and YFP[2]-ubiquitin were constructed as described above and transiently expressed in HEK293T cells. […] The present invention can be applied to the large-scale identification of proteins modified by ubiquitin and ubiquitin-like polypeptides; for example, using library screening as in Example 2 of the present invention where the ‘bait’ is ubiquitin or a ubiquitin-like molecule, or by using interaction mapping as in Example 4 where ubiquitin or a ubiquitin-like molecule is tested against individual cDNAs to identify ubiquitin-protein complexes. In addition, by constructing ubiquitin PCAs for specific protein targets, the assays that are the subject of the present invention can immediately be applied to high-throughput screening for novel therapeutic agents.

[2] = system: IkBa/p65 complex; assay: stable cell line IkBa/p65 YFP PCA, mean fluorescence intensity
Source text: TNF-induced degradation of IkBa, which is a consequence of ubiquitination and proteasomal degradation, frees bound NFkB and results in translocation of that transcription factor into the nucleus. Thus, disassembly of the IkBa-NFkB complex is a key step in NFkB-mediated gene regulation. To visualize regulation of the NFkB pathway at this level, we engineered a stable cell line expressing an IkBa/p65 PCA (FIG. 14). ERK1/MEK1 was used as a control. ERK1 was ligated to the 5′ end of YFP[1] while IkBa and MEK1 were appended to YFP[2] in N-terminal fusions. […]
Cells expressing IkBa-YFP[1]/YFP[2]-p65 or the controls, MEK-YFP[2]/ERK1-YFP[1], were seeded at 20,000 cells/well in black-walled poly-lysine coated 96 well plate (Greiner). […] Fluorescence was visualized and images were acquired using a Discovery-1 automated fluorescence imager (Molecular Devices, Inc.) equipped with excitation and emission filters 470/35 and 535/60, respectively. […]
Images were analyzed using Image J. Total mean fluorescence intensity for all cells was assessed by adding weighted mean fluorescence intensities for the nucleus and cytoplasm for individual cells in the population for a given condition +/− standard error. […] There was no effect of TNF treatment on the fluorescence intensity of the control (MEK/ERK) PCA.

[3] = system: NFkB (p65/p50) complex; assay: transient high-content YFP PCA for NFkB (p65/p50) nuclear translocation in CHO cells; conditions: 40 micrograms/ml ALLN 1 hour prior to and during TNF
Method: Fusion genes were subcloned into pCDNA3.1 expression vectors (Invitrogen) with a Zeocin selectable marker for YFP[1]-p50, and a hygromycin marker for YFP[2]-p65. A linker consisting of (GGGGS)2 (SEQ ID No.1) separated the genes of interest and the YFP fragments. CHO DUKXB11 cells were seeded into 96 well plates at a density of 8×10e3 cells/well and transfected 24 hours later with YFP[1] and YFP[2] fusion genes at a 1:1 molar ratio using Fugene (Boehringer Mannheim) according to manufacturer's directions. A total of 20 ng DNA per well was used for each sample. Thirty-six hours post-transfection, cells were serum starved by incubation in 0.25% FBS-supplemented aMEM for an additional 16–18 hours. For cytokine induction, certain cells were treated with 25 ng/ml mTNF (Boehringer Mannheim) for 30 min. To examine the effect of proteasome inhibition on NFkB nuclear translocation, the serum-starved cells were treated with 40 micrograms/ml ALLN (Calbiochem) for 1 hour prior to and during the mTNF alpha induction period. The cells were rinsed with PBS and the subcellular location of NFkB complexes was visualized and images acquired using a Nikon Eclipse TE2000 fluorescence microscope at excitation and emission wavelengths of 485 nm and 527 nm, respectively. Quantitative analysis of fluorescence intensities was performed using Metamorph software (Universal Imaging, Molecular Devices, Inc.)

For `CCCC[C@@H](C=O)NC(=O)[C@H](CC(C)C)NC(=O)[C@H](CC(C)C)NC(C)=O` [ALLN] (Ac-Leu-Leu-[Nle]-aldehyde), the “mean fluorescence intensity of ubiquitin-IkBa complexes” value [1] was “increases the accumulation; also recorded: significantly increased”, the “inhibition of the TNF-induced reduction of IkBa/p65 complexes” value ([2]; ALLN treatment for 4 hr) was 98% and the “effect on TNF-induced reduction in IkBa/p65 signal (in words)” value ([2]; FIG. 14) was “blocked”. The “effect on TNF-induced cytoplasmic-to-nuclear translocation of NFkB complexes” value [3] was “inhibition of the TNF response; also recorded: inhibited”.
